Source: paper PMC8201735 (BMC Pharmacology & Toxicology, 2021)
Like-named read-outs stand apart in the source and are kept apart here.

How the values were obtained:
subjects with T2DM [1] = experiment: Adverse event monitoring, RE co-administered with metformin for 13 days; assay type: in vivo, human
Description: The study was comprised of three phases; run-in, randomization, and treatment. […] In treatment phase the patients were considered in two cohorts. […] The adverse events monitoring included recording of any adverse event (AE) and serious adverse event (SAE) reported or observed during the entire study and follow-up period. All the subjects were counseled to inform study staff of any AEs that occurred during the study. Any abnormal laboratory findings (e.g., clinical chemistry, hematology, and urinalysis) or other abnormal assessments (e.g., ECGs, vital signs, physical examination) that were judged by the investigator as clinically significant were recorded as AEs or SAE.

subjects with T2DM [2] = experiment: Surveillance for lactic acidosis: fasting plasma lactic acid concentration; assay type: in vivo, human
Experimental: The samples for acidosis analysis were collected at screening (following an overnight fast and prior to morning dose), once during the run-in phase, at baseline (Day- 1), mornings (prior to first dose and breakfast) of Days 1, 2, 3, and 4 (inpatient) and Days 6, 8, and 10 (outpatient) and Days 13 and 14 (inpatient). Subjects were not allowed to do rigorous exercise or physical labor during the treatment phase of the study and instructed to limit exercise 12 h before sampling.
(§1) Descriptive statistics were used to summarize baseline demographics, safety data, and pharmacokinetic parameters. Geometric mean and % CVb (between-subject coefficient of variation) were calculated for all pharmacokinetic parameters except tmax. Comparisons of placebo with each active dose of RE were assessed in terms of change from baseline in fasting plasma lactate acid using repeated measures analysis of covariance model. The model included terms for baseline measurement, visit, treatment and visit-by-treatment interaction. The same model was applied to change from baseline in weighted means of day-time, night-time and 0–24 h of blood pressures. Within group treatment comparison was performed using mixed model on log transformed Cmax and AUC (0-last).

[3] = Plasma pharmacokinetics of metformin with and without RE; assay type: in vivo, human; settings: for AUC / Cmax: human, plasma, oral, geometric mean; for AUC: Metformin AUC (0-tau); for Cmax: Metformin Cmax
Experimental: as §1, with “PK analysis was conducted by […] (Chapel Hill, NC, USA), under the direction of Clinical Pharmacokinetics/Modelling and Simulation, GSK using the non-compartmental analysis Model 200 (for extra vascular administration) of WinNonlin Professional Edition version 4.1 (Pharsight Corporation, Mountain View, CA). […] Descriptive” for “Descriptive”, “0-24” for “0–24”

subjects with T2DM [4] = experiment: Oral glucose tolerance test (75 g): weighted mean plasma glucose and insulin; assay type: in vivo, human; settings: Placebo + Metformin
Experimental: Oral glucose tolerance testing was performed on Day 1 and Day 13 using a 75 g oral glucose solution. Blood samples for the measurement of insulin and glucose were taken immediately before drug dosing (within 5 min of drug dosing), and at 30 min, 1, 1.5, 2, 3, 4, and 6 h following drug dosing.

Body weight = assay type: in vivo, human; settings: Placebo + Metformin
Experimental: Body weight measurement was performed at screening and during inpatient Days- 1, 2, 4, 8, 13, and 14.

[5] = Fluid balance assessment (intake - urine output); assay type: in vivo, human; settings: Placebo + Metformin
subjects with T2DM [6] = experiment: Oral glucose tolerance test (75 g): weighted mean plasma glucose and insulin; assay type: in vivo, human; settings: Day -1 (baseline); Placebo + Metformin
subjects with T2DM [7] = settings: RE 500 mg BID and metformin 500 mg BID for 3 days; cited from earlier work
[8] = Plasma pharmacokinetics of remogliflozin etabonate and its metabolites during metformin treatment; assay type: in vivo, human; settings: for AUC / Cmax / Tmax: human, plasma; for AUC: read-out: AUC(0-tau), geometric mean (%CVb); for Cmax: read-out: Cmax, geometric mean (%CVb)
Experimental: as §1, with “PK analysis was conducted by […] (Chapel Hill, NC, USA), under the direction of Clinical Pharmacokinetics/Modelling and Simulation, GSK using the non-compartmental analysis Model 200 (for extra vascular administration) of WinNonlin Professional Edition version 4.1 (Pharsight Corporation, Mountain View, CA). […] Descriptive” for “Descriptive”, “0-24” for “0–24”

[9] = Placebo BID + metformin, N = 17
[10] = Day 13, Metformin + Placebo group
[11] = Day 13 Metformin + RE 750 mg BID
[12] = Day -1 metformin alone, Metformin + Placebo group
[13] = Day -1 metformin alone, Metformin + RE 500 mg group
[14] = Day 13 Metformin + RE 500 mg BID
[15] = Day -1 metformin alone, Metformin + RE 750 mg group
[16] = oral, 500 mg, Day 1, after RE 500 mg BID + metformin, N = 16
[17] = oral, 500 mg, Day 13, after RE 500 mg BID + metformin, N = 15
[18] = oral, 750 mg, Day 1, after RE 750 mg BID + metformin, N = 17
[19] = oral, 750 mg, Day 13, after RE 750 mg BID + metformin, N = 16

CN(C)C(=N)N=C(N)N [Metformin, metformin, reference compound]
Any AE (subjects with T2DM [1]; Placebo BID + metformin >=2000 mg/day, 13 days, N = 17): 3 (18%) N(%) | Diarrhoea (subjects with T2DM [1]; [9]): 1 (6%) N(%) | Dizziness (subjects with T2DM [1]; [9]): 0 N(%) | Dyslipidemia (subjects with T2DM [1]; [9]): 0 N(%) | Supraventricular tachycardia (subjects with T2DM [1]; [9]): 0 N(%) | Thirst (subjects with T2DM [1]; [9]): 1 (6%) N(%) | Vomiting (subjects with T2DM [1]; [9]): 0 N(%) | Subjects with hypoglycemic laboratory events (subjects with T2DM [1]; placebo + metformin group, mild, resolved without intervention): one | Fasting plasma lactic acid, maximum on-therapy absolute values, Mean (SD) (subjects with T2DM [2]; Placebo BID + metformin): 1.554 (0.5094) mmol/L | Fasting plasma lactic acid, maximum on-therapy change from baseline, Mean (SD) (subjects with T2DM [2]; Placebo BID + metformin): 0.460 (0.2289) mmol/L | Fasting plasma lactic acid change from baseline, Mean (SD) (subjects with T2DM [2]; Study Day 2, Placebo BID + metformin): 0.16 (0.266) mmol/L | Fasting plasma lactic acid change from baseline, Mean (SD) (subjects with T2DM [2]; Study Day 6, Placebo BID + metformin): 0.08 (0.288) mmol/L | Fasting plasma lactic acid change from baseline, Mean (SD) (subjects with T2DM [2]; Study Day 13, Placebo BID + metformin): 0.00 (0.304) mmol/L | Subjects with lactic acid greater than the upper limits of normal (ULN) at any time (subjects with T2DM [2]; while receiving metformin alone, not sustained, minimally above ULN): four | Metformin Cmax, geometric mean [3, 10]: 2041 ng/mL | Metformin tmax, median [3, 10]: 2.5 h | Metformin Cmax, geometric mean [3, 11]: 1695 ng/mL | Metformin tmax, median [3, 11]: 2.0 h | Metformin tmax, median [3, 12]: 2.0 h | Metformin tmax, median [3, 13]: 3.0 h | AUC [3, 10]: 14000 ng·h/mL | AUC [3, 14]: 14700 ng·h/mL | AUC [3, 11]: 11400 ng·h/mL | AUC [3, 12]: 12300 ng·h/mL | AUC [3, 13]: 13900 ng·h/mL | AUC [3, 15]: 11300 ng·h/mL | Cmax [3, 14]: 2170 ng/mL | Cmax [3, 12]: 1970 ng/mL | Cmax [3, 13]: 2160 ng/mL | Cmax [3, 15]: 1760 ng/mL | Weighted mean plasma glucose following OGTT, Mean (SD) (subjects with T2DM [4]; Day 1 (baseline)): 12.65 (3.306) mmol/L | Weighted mean plasma insulin following OGTT, Mean (SD) (subjects with T2DM [4]; Day 13): 162.97(97.374) pmol/L | Weighted mean plasma glucose, change from baseline, Mean (SD) (subjects with T2DM [4]): −0.10 (1.572) mmol/L | Weighted mean plasma insulin, change from baseline, Mean (SD) (subjects with T2DM [4]): −13.88(42.349) pmol/L | Change from baseline in body weight, Mean (SD) (Body weight; Day 2): −0.70 (0.679) kg | Change from baseline in body weight, Mean (SD) (Body weight; Day 14): −1.02 (0.845) kg | Change in fluid balance, Mean (SD) ([5]; Day 2): 203.5 (999.83) ml | Change in fluid balance, Mean (SD) ([5]; Day 13): −42.0 (1262.56) ml | Weighted mean plasma insulin following OGTT, Mean (SD) (subjects with T2DM [6]): 176.85(104.735) pmol/L | Effect of metformin on the pharmacokinetics of RE or its metabolites (subjects with T2DM [7]): no effect

Cc1c(Cc2ccc(OC(C)C)cc2)c(O[C@@H]2O[C@H](CO)[C@@H](O)[C@H](O)[C@H]2O)nn1C(C)C [Remogliflozin, remogliflozin]
AUC(0-tau) accumulation ratio Day 13 versus Day 1, point estimate (90% CI) ([8]; RE 500 mg + Metformin): 1.00 (0.907–1.10) | AUC(0-tau) accumulation ratio Day 13 versus Day 1, point estimate (90% CI) ([8]; RE 500 mg + Metformin, listed as remogliflozin): 1.00 (0.91, 1.10) | AUC(0-tau) accumulation ratio Day 13 versus Day 1, point estimate (90% CI) ([8]; RE 750 mg + Metformin): 0.82 (0.755–0.899) | AUC(0-tau) accumulation ratio Day 13 versus Day 1, point estimate (90% CI) ([8]; RE 750 mg + Metformin, listed as remogliflozin): 0.82 (0.755, 0.899) | AUC [8, 16]: 4890 ng·h/mL | Cmax [8, 16]: 2000 ng/mL | Tmax ([8]; oral, 500 mg, Day 1, after RE 500 mg BID + metformin, N = 16, read-out: tmax, median (range)): 0.77 h | AUC [8, 17]: 4930 ng·h/mL | Cmax [8, 17]: 1490 ng/mL | Tmax ([8]; oral, 500 mg, Day 13, after RE 500 mg BID + metformin, N = 15, read-out: tmax, median (range)): 3 h | Tmax ([8]; oral, 500 mg, RE 500 mg group, read-out: Time of peak concentrations (range)): 0.5 to 6 h | AUC [8, 18]: 8520 ng·h/mL | Cmax [8, 18]: 4010 ng/mL | Tmax ([8]; oral, 750 mg, Day 1, after RE 750 mg BID + metformin, N = 17, read-out: tmax, median (range)): 0.75 h | AUC [8, 19]: 7000 ng·h/mL | Cmax [8, 19]: 2510 ng/mL | Tmax ([8]; oral, 750 mg, Day 13, after RE 750 mg BID + metformin, N = 16, read-out: tmax, median (range)): 1.3 h | Tmax ([8]; po, after concomitant oral administration of RE with metformin (discussion), read-out: Time of peak concentration (range)): 0.5 to 4 h
